Among the data in patent US11034661B2, “Substituted N′-hydroxycarbamimidoyl-1,2,5-oxadiazole compounds as indoleamine 2,3-dioxygenase IDO inhibitors” (Merck Sharp & Dohme Corp., priority 2017, dated 2021) are IC50 values, retold here.

The target of one experiment is HIS-tagged IDO1 protein (Homo sapiens (Human), UniProt P14902). Briefly: IDO1 Enzyme Assay. The conditions noted are these: recombinant IDO1 40 nM, tryptophan substrate, fluorescence readout. It is filed as biochemical. The method, then: Biological Assays IDO1 Enzyme Assay
Compounds to be tested were serially diluted in ten 3-fold steps in DMSO starting from 10 mM DMSO stocks. Compound dilutions or DMSO alone were then dispensed from the dilution plate into a Greiner black 384-well assay plate (catalog #781086) using an Echo 555 acoustic liquid handler (Labcyte).
HIS-tagged IDO1 protein was recombinantly expressed in Escherichia coli using ZYP5052 autoinduction media supplemented with 500 μM delta aminolevulinic acid for 48 hours at 16 degrees Celsius. IDO1 protein was purified using Ni^2+-affinity resin and size exclusion chromatography. Purified protein was then diluted in assay buffer (50 mM Tris pH 7.0, 1% glycerol, 20 μM methylene blue, 0.05% Tween-20, 20 mM sodium ascorbate, 100 units/mL catalase to obtain a final IDO1 concentration of 40 nM. IDO1 solution […] or buffer alone […] was dispensed to wells of the assay plate using a BioRAPTR liquid dispenser (Beckman Coulter). Assay plates containing compound and IDO1 enzyme were incubated at room temperature for 30 minutes. Afterwards, 10 μL of 400 μM tryptophan in assay buffer were added to each well of the assay plate using a BioRAPTR liquid dispenser. Plates were incubated at room temperature for 60 minutes and reactions were quenched by addition of 10 μL of 0.5 M methyl isonipecotate in dimethyl sulfoxide. Plates were sealed and incubated at 37 degrees Celsius for 4 hours or 50 degrees Celsius for 2 hours. The plates are allowed to cool and then centrifuged for 1 minute at 1000×g. The resulting fluorescence was measured in an Envision plate reader (Perkin Elmer) with a 400/25 nm excitation filter and an 510/20 nm emission filter.
Potencies were calculated by linear least squares fit to the four parameter logistic IC50 equation.

In experiment [1] the target is IDO1 in Hela cells stimulated with IFNγ (Homo sapiens (Human), UniProt P14902). Briefly: IDO1 Cellular Assay in Hela Cells Stimulated with IFNγ. The experiment is classed as cell-based. Conditions: IFNγ 100 ng/mL, about 48 hours, fluorescence readout, read-out: IDO1 HELA Cell Assay, IC50. The procedure: IDO1 Cellular Assay in Hela Cells Stimulated with IFNγ
Hela cells were cultured in complete Hela culture medium (90% EMEM, 10% heat-inactivated fetal bovine serum) and expanded to about 1×10^9 cells. The cells were then collected and frozen down at 10×10^6 cells/vial in 1 mL frozen medium (90% complete Hela culture medium, 10% DMSO)
Compounds to be tested were serially diluted in ten 3-fold steps in DMSO starting from 10 mM DMSO stocks in Echo low volume plate(s). Compound dilutions or DMSO alone were then dispensed from the dilution plate(s) into Greiner black 384-well assay plate(s) (catalog #781086, 50 nL/well) using an Echo 550 acoustic liquid handler (Labcyte).
Frozen Hela cells were thawed and transferred into Hela assay medium (99% complete Hela culture medium, 1% Pen/Strep) with 20 mL medium/vial of cells. The cells were spun down at 250 g in a table top centrifuge for 5 min and suspended in same volume of Hela assay medium. The cells were then counted and adjusted to a density of 2×10^5 cells/ml in Hela assay medium. Sterile L-tryptophan were added to the cells with final concentration of 300 uM L-tryptophan. A small aliquot (2 mL/plate) of Hela cells were set aside and were not treated with IFNγ, to serve as the Max-E control. The rest of Hela cells were added with sterile IFNγ (Cat #285-IF, R & D systems) with a final concentration of 100 ng/mL.
Hela cells with and without IFNγ were dispensed to the respective wells of 384-well assay plates containing the compounds. The plates were incubated for about 48 hours at a 37° C., 5% CO2 incubator. Afterwards, 12 μL of 0.5 M methyl isonipecotate in dimethyl sulfoxide were added into each well and the plates were sealed and incubated at 37° C. without CO2 overnight. The plates were centrifuged for 1 min at 200×g. The resulting fluorescence was measured in a Spectramax plate reader (Molecular Devices) with a 400 nm excitation filter and a 510 nm emission filter.
The fluorescence intensity of each well was corrected for the background observed in wells with non-IFNγ-treated cells and was expressed as a fraction of the intensity observed in wells of IFNγ-treated cells and DMSO only. Potencies were calculated by linear least squares fit to the four parameter logistic IC50 equation.

Chain of HIS-tagged IDO1 protein (P14902 whole entry): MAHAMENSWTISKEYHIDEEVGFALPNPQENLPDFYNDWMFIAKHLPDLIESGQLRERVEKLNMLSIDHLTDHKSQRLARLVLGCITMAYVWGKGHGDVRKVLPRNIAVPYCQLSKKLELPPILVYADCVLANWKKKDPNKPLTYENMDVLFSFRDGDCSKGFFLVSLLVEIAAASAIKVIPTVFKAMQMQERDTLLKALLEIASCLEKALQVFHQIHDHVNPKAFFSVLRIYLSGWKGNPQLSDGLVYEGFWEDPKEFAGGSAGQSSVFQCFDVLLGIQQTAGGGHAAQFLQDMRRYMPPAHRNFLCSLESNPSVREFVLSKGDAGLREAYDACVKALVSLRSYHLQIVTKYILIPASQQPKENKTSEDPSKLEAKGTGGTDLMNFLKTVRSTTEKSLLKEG
Chain of IDO1 in Hela cells stimulated with IFNγ (P14902 whole entry): as above

In the case of `C[C@@H](CNS(N)(=O)=O)Oc1nonc1/C(=N/O)N[C@H]1Cc2ccc(F)cc21` [Example 67, (Z)-N-((S)-4-fluorobicyclo[4.2.0]octa-1(6),2,4-trien-7-yl)-N′-hydroxy-4-(((S)-1-(sulfamoylamino)propan-2-yl)oxy)-1,2,5-oxadiazole-3-carboximidamide], the IC50 (usually the concentration that inhibits the measured activity by half) was 1550 nM on HIS-tagged IDO1 protein and 848 nM in experiment [1].

Consider `O/N=C(\N[C@H]1Cc2ccc(F)cc21)c1nonc1OC1CNC1` [Example 21, 4-[(azetidin-3-yl)oxy]-N-[(7S)-4-fluorobicyclo[4.2.0]octa-1,3,5-trien-7-yl]-N′-hydroxy-1,2,5-oxadiazole-3-carboximidamide], for which the results for the IC50 (on HIS-tagged IDO1 protein; in experiment [1]) were 224 nM and 1780 nM, respectively.

As for `O=C(NCCOc1nonc1/C(=N/O)N[C@H]1Cc2ccc(F)cc21)[C@H](O)CO` [Example 20, (2R)-N-{2-[(4-{N-[(7S)-4-fluorobicyclo[4.2.0]octa-1,3,5-trien-7-yl]-N′-hydroxycarbamimidoyl}-1,2,5-oxadiazol-3-yl)oxy]ethyl}-2,3-dihydroxypropanamide], the IC50 on HIS-tagged IDO1 protein is 302 nM; in experiment [1], 2360 nM.

Take `O=C(CO)N1CCC[C@@H]1COc1nonc1/C(=N/O)N[C@H]1Cc2ccc(F)cc21` [Example 58, N-[(7S)-4-fluorobicyclo[4.2.0]octa-1,3,5-trien-7-yl]-N′-hydroxy-4-{[(2R)-1-(hydroxyacetyl)pyrrolidin-2-yl]methoxy}-1,2,5-oxadiazole-3-carboximidamide]: the figures for the IC50 (at HIS-tagged IDO1 protein; in experiment [1]) were 1490 nM and 1340 nM, respectively.

Regarding `CS(=O)(=O)CCOc1nonc1/C(=N/O)N[C@H]1Cc2ccc(F)cc21` [Example 27, N-[(7S)-4-fluorobicyclo[4.2.0]octa-1,3,5-trien-7-yl]-N′-hydroxy-4-[2-(methylsulfonyl)ethoxy]-1,2,5-oxadiazole-3-carboximidamide], the IC50 at HIS-tagged IDO1 protein was determined as 1480 nM; in experiment [1], 1330 nM.

As to `CC(=O)N[C@H](CO)COc1nonc1/C(=N/O)N[C@H]1Cc2ccc(F)cc21` [Example 51, N-{(2R)-1-[(4-{N-[(7S)-4-fluorobicyclo[4.2.0]octa-1,3,5-trien-7-yl]-N′-hydroxycarbamimidoyl}-1,2,5-oxadiazol-3-yl)oxy]-3-hydroxypropan-2-yl}acetamide], the IC50 at HIS-tagged IDO1 protein is 1070 nM; in experiment [1] it was 1340 nM.

Regarding `O=C(CO)N1CCC(Oc2nonc2/C(=N/O)N[C@H]2Cc3ccc(F)cc32)CC1` [Example 50, N-[(7S)-4-fluorobicyclo[4.2.0]octa-1,3,5-trien-7-yl]-N′-hydroxy-4-{[1-(hydroxyacetyl)piperidin-4-yl]oxy}-1,2,5-oxadiazole-3-carboximidamide], the IC50 on HIS-tagged IDO1 protein turned out to be 516 nM; in experiment [1] it was 822 nM.

Take `NS(=O)(=O)N1CCC(Oc2nonc2/C(=N/O)N[C@H]2Cc3ccc(F)cc32)CC1` [Example 49, N-[(7S)-4-fluorobicyclo[4.2.0]octa-1,3,5-trien-7-yl]-N′-hydroxy-4-[(1-sulfamoylpiperidin-4-yl)oxy]-1,2,5-oxadiazole-3-carboximidamide]: the IC50 on HIS-tagged IDO1 protein worked out at 10700 nM; in experiment [1], 7310 nM.

For `CC(C)(O)CNC(=O)COc1nonc1/C(=N/O)NC1Cc2ccc(F)cc21` (centres unmarked) [Example 14, 2-({4-[N-(4-fluorobicyclo[4.2.0]octa-1,3,5-trien-7-yl)-N′-hydroxycarbamimidoyl]-1,2,5-oxadiazol-3-yl}oxy)-N-(2-hydroxy-2-methylpropyl)acetamide], the IC50 at HIS-tagged IDO1 protein worked out at 985 nM; in experiment [1], 770 nM.

As to `NC(=O)COc1nonc1/C(=N/O)N[C@H]1Cc2ccc(F)cc21` [Example 17, 2-[(4-{N-[(7S)-4-fluorobicyclo[4.2.0]octa-1,3,5-trien-7-yl]-N′-hydroxycarbamimidoyl}-1,2,5-oxadiazol-3-yl)oxy]acetamide], the figures for the IC50 (on HIS-tagged IDO1 protein; in experiment [1]) were 186 nM and 220 nM, respectively.

`O=C(COc1nonc1/C(=N/O)NC1Cc2ccc(F)cc21)NCC(O)CO` (centres unmarked) [Example 12, N-(2,3-dihydroxypropyl)-2-({4-[N-(4-fluorobicyclo[4.2.0]octa-1,3,5-trien-7-yl)-N′-hydroxycarbamimidoyl]-1,2,5-oxadiazol-3-yl}oxy)acetamide]: the IC50 at HIS-tagged IDO1 protein came to 700 nM; in experiment [1], 920 nM.

Turning to `CC(=O)NC[C@@H](CO)Oc1nonc1/C(=N/O)N[C@H]1Cc2ccc(F)cc21` [Example 55, N-{(2S)-2-[(4-{N-[(7S)-4-fluorobicyclo[4.2.0]octa-1,3,5-trien-7-yl]-N′-hydroxycarbamimidoyl}-1,2,5-oxadiazol-3-yl)oxy]-3-hydroxypropyl}acetamide], the results for the IC50 (at HIS-tagged IDO1 protein; in experiment [1]) were 216 nM and 328 nM, respectively.

Take `CC(=O)NC(CO)COc1nonc1/C(=N/O)N[C@H]1Cc2ccc(F)cc21` (stereo partly drawn) [Example 39, N-{1-[(4-{N-[(7S)-4-fluorobicyclo[4.2.0]octa-1,3,5-trien-7-yl]-N′-hydroxycarbamimidoyl}-1,2,5-oxadiazol-3-yl)oxy]-3-hydroxypropan-2-yl}acetamide]: the results for the IC50 (on HIS-tagged IDO1 protein; in experiment [1]) were 334 nM and 446 nM, respectively.

Turning to `C[C@@H](O)C(=O)N1CC(Oc2nonc2/C(=N/O)N[C@H]2Cc3ccc(F)cc32)C1` [Example 61, N-((S)-4-fluorobicyclo[4.2.0]octa-1(6),2,4-trien-7-yl)-N′-hydroxy-4-((1-((R)-2-hydroxypropanoyl)azetidin-3-yl)oxy)-1,2,5-oxadiazole-3-carboximidamide], the IC50 at HIS-tagged IDO1 protein came to 89 nM; in experiment [1], 99 nM.

Consider `CC(C)(O)C(=O)N[C@H]1C[C@@H](Oc2nonc2/C(=N/O)N[C@H]2Cc3ccc(F)cc32)C1` [Example 66, N-((1R,3s)-3-((4-((Z)-N-((S)-4-fluorobicyclo[4.2.0]octa-1(6),2,4-trien-7-yl)-N′-hydroxycarbamimidoyl)-1,2,5-oxadiazol-3-yl)oxy)cyclobutyl)-2-hydroxy-2-methylpropanamide], for which the IC50 on HIS-tagged IDO1 protein was 167 nM; in experiment [1], 287 nM.

Regarding `CC(=O)N[C@@H](CO)COc1nonc1/C(=N/O)N[C@H]1Cc2ccc(F)cc21` [Example 52, N-{(2S)-1-[(4-{N-[(7S)-4-fluorobicyclo[4.2.0]octa-1,3,5-trien-7-yl]-N′-hydroxycarbamimidoyl}-1,2,5-oxadiazol-3-yl)oxy]-3-hydroxypropan-2-yl}acetamide], the IC50 was 1810 nM on HIS-tagged IDO1 protein and 1290 nM in experiment [1].

With `NS(=O)(=O)NCCCOc1nonc1/C(=N/O)N[C@H]1Cc2ccc(F)cc21` [Example 64, (S,Z)-N-(4-fluorobicyclo[4.2.0]octa-1(6),2,4-trien-7-yl)-N′-hydroxy-4-(3-(sulfamoylamino)propoxy)-1,2,5-oxadiazole-3-carboximidamide], the IC50 on HIS-tagged IDO1 protein turned out to be 37 nM; in experiment [1], 66 nM.

`CC(=O)NC[C@H](O)COc1nonc1/C(=N/O)N[C@H]1Cc2ccc(F)cc21` [Example 53, N-{(2S)-3-[(4-{N-[(7S)-4-fluorobicyclo[4.2.0]octa-1,3,5-trien-7-yl]-N′-hydroxycarbamimidoyl}-1,2,5-oxadiazol-3-yl)oxy]-2-hydroxypropyl}acetamide]: the IC50 was 216 nM at HIS-tagged IDO1 protein and 328 nM in experiment [1].

Consider `CC(C)(Oc1nonc1/C(=N/O)NC1Cc2ccc(F)cc21)C(=O)NCCO` (centres unmarked) [Example 19, 2-({4-[N-(4-fluorobicyclo[4.2.0]octa-1,3,5-trien-7-yl)-N′-hydroxycarbamimidoyl]-1,2,5-oxadiazol-3-yl}oxy)-N-(2-hydroxyethyl)-2-methylpropanamide], for which the IC50 on HIS-tagged IDO1 protein stood at 7790 nM; in experiment [1], 2850 nM.
